According to patent US20250197374A1, “WEE1 DEGRADING COMPOUNDS AND USES THEREOF” (BRISTOL-MYERS SQUIBB COMPANY, priority 2023, published 2025):
Where two headings read alike, the source gives them in different places.

Assays:
Format in all cases: cell-based
WEE1 = biological target: T1, WEE1 (Homo sapiens, UniProt P30291+Q96SW2); assay: WEE1-ePL degradation assay (293T-LentiX, InCELL Hunter luminescence, 4 hr); conditions: for DC50: LentiX-HEK293T cells expressing WEE1-ePL, 4 hr incubation, read-out: 293T-LentiX WEE1-ePL Degradation 4 hr EC50; for 293T-LentiX WEE1-ePL Degradation 4 hr YMin (%): lower limit of fit, % of DMSO control signal remaining
T1 construct: C-terminal ePL-tagged (DiscoverX, Fremont, CA) full-length WEE1 expression construct; expressed in transfected cells; host or cells: LentiX-HEK293T (Invitrogen), lentivirally transduced; the cells also over-express GSPT1-GN
T1 sequence (P30291 whole entry): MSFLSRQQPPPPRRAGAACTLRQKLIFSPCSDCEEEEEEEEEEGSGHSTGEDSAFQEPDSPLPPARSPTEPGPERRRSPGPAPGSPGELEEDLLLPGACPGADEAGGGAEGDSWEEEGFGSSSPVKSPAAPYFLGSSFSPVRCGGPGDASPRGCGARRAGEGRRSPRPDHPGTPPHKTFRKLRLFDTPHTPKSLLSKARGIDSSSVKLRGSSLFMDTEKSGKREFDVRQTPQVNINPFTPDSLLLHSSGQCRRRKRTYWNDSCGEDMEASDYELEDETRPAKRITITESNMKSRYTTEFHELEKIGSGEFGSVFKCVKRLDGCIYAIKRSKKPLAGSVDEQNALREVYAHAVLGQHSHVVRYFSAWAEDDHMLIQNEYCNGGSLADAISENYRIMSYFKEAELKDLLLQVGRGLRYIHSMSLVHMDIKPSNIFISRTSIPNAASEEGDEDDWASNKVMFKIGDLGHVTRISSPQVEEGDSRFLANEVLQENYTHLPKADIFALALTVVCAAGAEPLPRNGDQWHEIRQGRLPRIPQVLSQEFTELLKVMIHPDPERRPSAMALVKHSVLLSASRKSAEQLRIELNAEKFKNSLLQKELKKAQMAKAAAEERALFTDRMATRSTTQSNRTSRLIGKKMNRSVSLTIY
T1 sequence (Q96SW2 whole entry): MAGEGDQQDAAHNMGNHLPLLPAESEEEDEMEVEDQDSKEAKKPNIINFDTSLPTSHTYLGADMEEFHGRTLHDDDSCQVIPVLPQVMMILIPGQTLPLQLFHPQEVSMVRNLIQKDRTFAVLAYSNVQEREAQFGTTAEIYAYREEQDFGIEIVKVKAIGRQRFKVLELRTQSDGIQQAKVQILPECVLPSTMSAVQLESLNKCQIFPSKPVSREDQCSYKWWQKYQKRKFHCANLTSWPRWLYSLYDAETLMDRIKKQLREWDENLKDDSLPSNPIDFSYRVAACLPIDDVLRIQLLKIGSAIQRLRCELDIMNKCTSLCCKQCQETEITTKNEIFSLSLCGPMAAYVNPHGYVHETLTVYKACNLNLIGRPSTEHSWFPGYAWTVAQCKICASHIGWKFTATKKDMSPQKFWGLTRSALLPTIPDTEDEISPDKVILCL
T1 sequence (Q16531 whole entry partner): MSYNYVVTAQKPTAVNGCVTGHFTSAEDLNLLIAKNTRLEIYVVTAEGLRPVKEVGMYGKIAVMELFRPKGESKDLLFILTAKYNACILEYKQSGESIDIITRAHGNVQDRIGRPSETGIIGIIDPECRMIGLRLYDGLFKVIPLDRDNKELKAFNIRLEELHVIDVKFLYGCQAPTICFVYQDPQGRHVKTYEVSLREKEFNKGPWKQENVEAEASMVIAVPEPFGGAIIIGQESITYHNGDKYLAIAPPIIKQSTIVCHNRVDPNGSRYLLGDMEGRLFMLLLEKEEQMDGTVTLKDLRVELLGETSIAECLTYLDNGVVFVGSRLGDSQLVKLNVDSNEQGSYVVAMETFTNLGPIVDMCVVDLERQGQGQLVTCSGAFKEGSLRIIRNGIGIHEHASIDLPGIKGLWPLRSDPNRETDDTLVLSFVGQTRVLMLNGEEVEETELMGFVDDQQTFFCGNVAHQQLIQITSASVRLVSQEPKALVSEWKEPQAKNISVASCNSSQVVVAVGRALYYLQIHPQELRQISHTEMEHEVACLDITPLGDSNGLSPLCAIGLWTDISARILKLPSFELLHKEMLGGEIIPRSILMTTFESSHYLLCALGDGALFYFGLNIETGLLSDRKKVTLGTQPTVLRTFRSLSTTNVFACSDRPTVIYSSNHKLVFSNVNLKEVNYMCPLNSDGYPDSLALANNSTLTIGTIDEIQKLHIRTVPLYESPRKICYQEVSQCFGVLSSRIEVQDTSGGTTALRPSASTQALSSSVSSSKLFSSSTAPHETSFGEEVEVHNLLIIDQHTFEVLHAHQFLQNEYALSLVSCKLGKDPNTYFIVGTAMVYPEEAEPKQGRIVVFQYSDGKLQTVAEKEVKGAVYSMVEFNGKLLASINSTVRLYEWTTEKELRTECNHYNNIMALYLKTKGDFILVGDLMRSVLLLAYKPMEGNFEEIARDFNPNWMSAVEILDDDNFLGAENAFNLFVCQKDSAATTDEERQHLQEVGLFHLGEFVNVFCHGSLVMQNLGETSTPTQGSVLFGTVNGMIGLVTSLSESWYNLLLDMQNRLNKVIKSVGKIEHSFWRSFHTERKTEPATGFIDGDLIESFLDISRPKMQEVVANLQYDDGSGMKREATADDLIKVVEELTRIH
How it was run: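 LentiX-HEK293T cells expressing C-terminally ePL-tagged full-length WEE1 plus non-degradable GSPT1-GN (G575N, N-terminal 158 aa truncated). Treated 4 h at 37 °C with a 10-point, 3-fold series from 1 or 10 µM, then read by InCELL Hunter luminescence. EC50 from four-parameter logistic fit, Ymax set by DMSO control.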

MKN45 cells = assay: MKN45 cell proliferation assay (Cell-Titer-Glo, 120 hr); conditions: for EC50: read-out: MKN45 Cell Prolif. 120 hr EC50; for MKN45 Cell Prolif. 120 hr YMin (%): minimal percent of DMSO control observed
How it was run: (§1)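 MKN45 (400/well) and MDA-MB-231 (800/well) cells in RPMI with 10% FBS were exposed to 10-point half-log doses from 1 or 10 uM (0.1% DMSO) for 120 h at 37 °C. Viability was read by CellTiter-Glo luminescence. EC50 came from blank-subtracted, %DMSO four-parameter fits, with Ymin-obs as the lowest %DMSO observed.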

MDA-MB-231 cells = assay: MDA-MB-231 cell proliferation assay (Cell-Titer-Glo, 120 hr); conditions: for EC50: read-out: MDA-MB 231 Cell Prolif. 120 hr EC50; for MDA-MB 231 Cell Prolif. 120 hr YMin (%): minimal percent of DMSO control observed
How it was run: as §1

[1] = Homo sapiens, MDA-MB-231, 120 h

SMILES | DC50 (WEE1) | 293T-LentiX WEE1-ePL Degradation 4 hr YMin (%) (WEE1) | EC50 (MKN45 cells; Homo sapiens, MKN-45, 120 h) | MKN45 Cell Prolif. 120 hr YMin (%) (MKN45 cells) | EC50 (MDA-MB-231 cells; [1]) | MDA-MB 231 Cell Prolif. 120 hr YMin (%) (MDA-MB-231 cells) | EC50 (MKN45 cells) | EC50 (MDA-MB-231 cells)
O=C1CC[C@H](N2Cc3cc(O[C@@H]4CN(Cc5cc(F)c6nc(N7C[C@@H]8CCO[C@@H]8C7)ccc6c5)CC4(F)F)ccc3C2=O)C(=O)N1 (single isomer, unassigned) [Example 15, (S)-3-(5-(((R)-4,4-difluoro-1-((8-fluoro-2-((3aS*,6aS*)-hexahydro-5H-furo[2,3-c]pyrrol-5-yl)quinolin-6-yl)methyl)pyrrolidin-3-yl)oxy)-1-oxoisoindolin-2-yl)piperidine-2,6-dione] | 2 nM | 28.4% | 6 nM | 8.8% | 73 nM | 31.4% |  | 
COC[C@@H]1CN(Cc2ccc3nc(N4C[C@@H]5CCO[C@@H]5C4)ccc3c2)C[C@H]1Oc1ccc2c(c1)CN([C@H]1CCC(=O)NC1=O)C2=O (single isomer, unassigned) [Example 16, (S)-3-(5-(((3S,4S)-1-((2-((3aS*,6aS*)-hexahydro-5H-furo[2,3-c]pyrrol-5-yl)quinolin-6-yl)methyl)-4-(methoxymethyl)pyrrolidin-3-yl)oxy)-1-oxoisoindolin-2-yl)piperidine-2,6-dione] |  | 29.6% | 2 nM | 10.8% | 48 nM | 43.7% |  | 
O=C1CC[C@H](N2Cc3cc(O[C@@H]4CN(Cc5ccc6nc(N7C[C@@H]8CCO[C@@H]8C7)ccc6c5)CC4(F)F)ccc3C2=O)C(=O)N1 (single isomer, unassigned) [Example 17, (S)-3-(5-(((R)-4,4-difluoro-1-((2-((3aS*,6aS*)-hexahydro-5H-furo[2,3-c]pyrrol-5-yl)quinolin-6-yl)methyl)pyrrolidin-3-yl)oxy)-1-oxoisoindolin-2-yl)piperidine-2,6-dione] | 2 nM | 25.6% | 5 nM | 13.2% | 45 nM | 47.2% |  | 
COC[C@@H]1CN(Cc2ccc3nc(N4C[C@@H]5CCO[C@@H]5C4)ncc3c2)C[C@H]1Oc1ccc2c(c1)CN([C@H]1CCC(=O)NC1=O)C2=O (single isomer, unassigned) [Example 18, (S)-3-(5-(((3S,4S)-1-((2-((3aS*,6aS*)-hexahydro-5H-furo[2,3-c]pyrrol-5-yl)quinazolin-6-yl)methyl)-4-(methoxymethyl)pyrrolidin-3-yl)oxy)-1-oxoisoindolin-2-yl)piperidine-2,6-dione] | 3 nM | 29.8% | 7 nM | 10.1% | 73 nM | 28.4% |  | 
O=C1CC[C@H](N2Cc3cc(O[C@H]4CCN(Cc5cc(F)c6nc(N7C[C@@H]8CCO[C@@H]8C7)ncc6c5)C4)ccc3C2=O)C(=O)N1 (single isomer, unassigned) [Example 19, (S)-3-(5-(((S)-1-((8-fluoro-2-((3aS*,6aS*)-hexahydro-5H-furo[2,3-c]pyrrol-5-yl)quinazolin-6-yl)methyl)pyrrolidin-3-yl)oxy)-1-oxoisoindolin-2-yl)piperidine-2,6-dione] | 6 nM | 31.4% | 12 nM | 10.1% | 104 nM | 58.4% |  | 
O=C1CCC(N2C(=O)c3ccc(O[C@H]4CCN(Cc5cc(F)c6nc(C7CCOCC7)ccc6c5)C4)cc3C2=O)C(=O)N1 (single isomer, unassigned) [Example 26, 2-((R*)-2,6-dioxopiperidin-3-yl)-5-(((S)-1-((8-fluoro-2-(tetrahydro-2H-pyran-4-yl)quinolin-6-yl)methyl)pyrrolidin-3-yl)oxy)isoindoline-1,3-dione] | 8 nM | 32.8% |  | 12.3% |  | 53.8% | 39 nM | 999 nM
O=C1CC[C@H](N2Cc3cc(O[C@H]4CCN(Cc5cc(F)c6nc(N7C[C@@H]8CCO[C@@H]8C7)ccc6c5)C4)ccc3C2=O)C(=O)N1 (single isomer, unassigned) [Example 81, (S)-3-(5-(((S)-1-((8-fluoro-2-((3aS*,6aS*)-hexahydro-5H-furo[2,3-c]pyrrol-5-yl)quinolin-6-yl)methyl)pyrrolidin-3-yl)oxy)-1-oxoisoindolin-2-yl)piperidine-2,6-dione] | 1 nM | 32.9% | 5 nM | 15.5% | 64 nM | 66.9% |  | 
COC[C@@H]1CN(Cc2cc(F)c3nc(N4CCC(OC)C4)ccc3c2)C[C@H]1Oc1ccc2c(c1)CN([C@H]1CCC(=O)NC1=O)C2=O (single isomer, unassigned) [Example 97, (S)-3-(5-(((3S,4S)-1-((8-fluoro-2-((R*)-3-methoxypyrrolidin-1-yl)quinolin-6-yl)methyl)-4-(methoxymethyl)pyrrolidin-3-yl)oxy)-1-oxoisoindolin-2-yl)piperidine-2,6-dione] | 1 nM | 29.8% | 1 nM | 8.7% | 22 nM | 22.0% |  | 
COC[C@@H]1CN(Cc2cc(F)c3nc(N4CCC(OC)C4)ccc3c2)C[C@H]1Oc1ccc2c(c1)CN([C@H]1CCC(=O)NC1=O)C2=O (single isomer, unassigned) [Example 98, (S)-3-(5-(((3S,4S)-1-((8-fluoro-2-((S*)-3-methoxypyrrolidin-1-yl)quinolin-6-yl)methyl)-4-(methoxymethyl)pyrrolidin-3-yl)oxy)-1-oxoisoindolin-2-yl)piperidine-2,6-dione] | 1 nM | 29.4% |  | 9.0% |  | 25.1% | 1 nM | 13 nM
COC[C@@H]1CN(Cc2cc(F)c3c(ccn3C(=O)C3CCOCC3)c2)C[C@H]1Oc1ccc2c(c1)CN([C@H]1CCC(=O)NC1=O)C2=O [Example 24, (3S)-3-(5-{[(3S,4S)-1-{[7-fluoro-1-(oxane-4-carbonyl)-1H-indol-5-yl]methyl}-4-(methoxymethyl)pyrrolidin-3-yl]oxy}-1-oxo-2,3-dihydro-1H-isoindol-2-yl)piperidine-2,6-dione] | 5 nM | 37.7% | 50 nM | 49.1% | 68 nM | 87.7% |  | 
COC[C@@H]1CN(Cc2ccc3c(ccn3C(=O)C3CCOCC3)c2)C[C@H]1Oc1ccc2c(c1)CN([C@H]1CCC(=O)NC1=O)C2=O [Example 25, (3S)-3-(5-{[(3S,4S)-4-(methoxymethyl)-1-{[1-(oxane-4-carbonyl)-1H-indol-5-yl]methyl}pyrrolidin-3-yl]oxy}-1-oxo-2,3-dihydro-1H-isoindol-2-yl)piperidine-2,6-dione] | 2 nM | 39.0% | 35 nM | 25.4% | 128 nM | 80.7% |  | 
COC[C@@H]1CN(Cc2cc3ccc(N4CCOCC4)cc3cn2)C[C@H]1Oc1ccc2c(c1)CN([C@H]1CCC(=O)NC1=O)C2=O [Example 28, (3S)-3-(5-{[(3S,4S)-4-(methoxymethyl)-1-{[7-(morpholin-4-yl)isoquinolin-3-yl]methyl}pyrrolidin-3-yl]oxy}-1-oxo-2,3-dihydro-1H-isoindol-2-yl)piperidine-2,6-dione] | 1 nM | 29.1% | 1 nM | 11.2% | 48 nM | 22.1% |  | 
